Test results from ChEMBL document CHEMBL3102853, “Carbonic anhydrase inhibitors. Synthesis, and molecular structure of novel series N-substituted N'-(2-arylmethylthio-4-chloro-5-methylbenzenesulfonyl)guanidines and their inhibition of human cytosolic isozymes I and II and the transmembrane tumor-associated isozymes IX and XII” (Eur J Med Chem, 2014).

What was measured:
[1] = tested on: MDA-MB-468; experiment: Cytotoxicity against human MDA-MB-468 cells; assay type: functional
[2] = tested on: IGROV-1; experiment: Cytotoxicity against human IGROV1 cells; assay type: functional
[3] = tested on: T47D; experiment: Cytotoxicity against human T47D cells; assay type: functional
[4] = tested on: BT-549; experiment: Cytotoxicity against human BT549 cells; assay type: functional
[5] = Cytotoxicity against human Hs 578T cells; assay type: functional
[6] = tested on: MCF7; experiment: Cytotoxicity against human MCF7 cells; assay type: functional
[7] = tested on: MDA-MB-231; experiment: Cytotoxicity against human MDA-MB-231 cells; assay type: functional
[8] = tested on: PC-3; experiment: Cytotoxicity against human PC3 cells; assay type: functional
[9] = tested on: A498; experiment: Cytotoxicity against human A498 cells; assay type: functional
[10] = tested on: OVCAR-8; experiment: Cytotoxicity against human OVCAR8 cells; assay type: functional
[11] = tested on: OVCAR-3; experiment: Cytotoxicity against human OVCAR3 cells; assay type: functional
[12] = Cytotoxicity against human OVCAR4 cells; assay type: functional
[13] = tested on: UACC-62; experiment: Cytotoxicity against human UACC62 cells; assay type: functional
[14] = Cytotoxicity against human UACC257 cells; assay type: functional
[15] = tested on: SK-MEL-2; experiment: Cytotoxicity against human SK-MEL-2 cells; assay type: functional
[16] = tested on: SK-MEL-28; experiment: Cytotoxicity against human SK-MEL-28 cells; assay type: functional
[17] = tested on: MDA-MB-435; experiment: Cytotoxicity against human MDA-MB-435 cells; assay type: functional
[18] = tested on: M14; experiment: Cytotoxicity against human M14 cells; assay type: functional
[19] = tested on: Malme-3M; experiment: Cytotoxicity against human MALME-3M cells; assay type: functional
[20] = tested on: LOX IMVI; experiment: Cytotoxicity against human LOXIMVI cells; assay type: functional
[21] = tested on: SNB-19; experiment: Cytotoxicity against human SNB19 cells; assay type: functional
[22] = tested on: SNB-75; experiment: Cytotoxicity against human SNB75 cells; assay type: functional
[23] = tested on: SF-268; experiment: Cytotoxicity against human SF268 cells; assay type: functional
[24] = tested on: KM12; experiment: Cytotoxicity against human KM12 cells; assay type: functional
[25] = tested on: SF-539; experiment: Cytotoxicity against human SF539 cells; assay type: functional
[26] = tested on: HCT-116; experiment: Cytotoxicity against human HCT116 cells; assay type: functional
[27] = tested on: HCC 2998; experiment: Cytotoxicity against human HCC2998 cells; assay type: functional
[28] = tested on: NCI-H522; experiment: Cytotoxicity against human NCI-H522 cells; assay type: functional
[29] = tested on: COLO 205; experiment: Cytotoxicity against human COLO205 cells; assay type: functional
[30] = tested on: NCI-H460; experiment: Cytotoxicity against human NCI-H460 cells; assay type: functional
[31] = tested on: HOP-92; experiment: Cytotoxicity against human HOP92 cells; assay type: functional
[32] = tested on: RPMI-8226; experiment: Cytotoxicity against human RPMI8226 cells; assay type: functional
[33] = tested on: SR; experiment: Cytotoxicity against human SR cells; assay type: functional
[34] = tested on: MOLT-4; experiment: Cytotoxicity against human MOLT4 cells; assay type: functional
[35] = tested on: K562; experiment: Cytotoxicity against human K562 cells; assay type: functional
[36] = tested on: CCRF-CEM; experiment: Cytotoxicity against human CCRF-CEM cells; assay type: functional
[37] = tested on: HL-60(TB); experiment: Cytotoxicity against human HL-60(TB) cells; assay type: functional
[38] = Cytotoxicity against human Hs 578T cells at 10 uM; assay type: functional; conditions: read-out: GI
[39] = tested on: MDA-MB-468; experiment: Cytotoxicity against human MDA-MB-468 cells at 10 uM; assay type: functional; conditions: read-out: GI
[40] = tested on: MCF7; experiment: Cytotoxicity against human MCF7 cells at 10 uM; assay type: functional; conditions: read-out: GI
[41] = tested on: T47D; experiment: Cytotoxicity against human T47D cells at 10 uM; assay type: functional; conditions: read-out: GI
[42] = tested on: DU-145; experiment: Cytotoxicity against human DU145 cells at 10 uM; assay type: functional; conditions: read-out: GI
[43] = tested on: PC-3; experiment: Cytotoxicity against human PC3 cells at 10 uM; assay type: functional; conditions: read-out: GI
[44] = tested on: A498; experiment: Cytotoxicity against human A498 cells at 10 uM; assay type: functional; conditions: read-out: GI
[45] = Cytotoxicity against human NCI-ADR-RES cells at 10 uM; assay type: functional; conditions: read-out: GI
[46] = tested on: LOX IMVI; experiment: Cytotoxicity against human LOXIMVI cells at 10 uM; assay type: functional; conditions: read-out: GI
[47] = tested on: OVCAR-3; experiment: Cytotoxicity against human OVCAR3 cells at 10 uM; assay type: functional; conditions: read-out: GI
[48] = tested on: UACC-62; experiment: Cytotoxicity against human UACC62 cells at 10 uM; assay type: functional; conditions: read-out: GI
[49] = tested on: SK-MEL-2; experiment: Cytotoxicity against human SK-MEL-2 cells at 10 uM; assay type: functional; conditions: read-out: GI
[50] = tested on: SF-268; experiment: Cytotoxicity against human SF268 cells at 10 uM; assay type: functional; conditions: read-out: GI
[51] = tested on: SW-620; experiment: Cytotoxicity against human SW620 cells at 10 uM; assay type: functional; conditions: read-out: GI
[52] = tested on: SNB-75; experiment: Cytotoxicity against human SNB75 cells at 10 uM; assay type: functional; conditions: read-out: GI
[53] = tested on: KM12; experiment: Cytotoxicity against human KM12 cells at 10 uM; assay type: functional; conditions: read-out: GI
[54] = tested on: HT-29; experiment: Cytotoxicity against human HT-29 cells at 10 uM; assay type: functional; conditions: read-out: GI
[55] = tested on: HOP-92; experiment: Cytotoxicity against human HOP92 cells at 10 uM; assay type: functional; conditions: read-out: GI
[56] = tested on: NCI-H460; experiment: Cytotoxicity against human NCI-H460 cells at 10 uM; assay type: functional; conditions: read-out: GI
[57] = tested on: A549; experiment: Cytotoxicity against human A549 cells at 10 uM; assay type: functional; conditions: read-out: GI
[58] = tested on: SR; experiment: Cytotoxicity against human SR cells at 10 uM; assay type: functional; conditions: read-out: GI
[59] = tested on: MOLT-4; experiment: Cytotoxicity against human MOLT4 cells at 10 uM; assay type: functional; conditions: read-out: GI
[60] = tested on: RPMI-8226; experiment: Cytotoxicity against human RPMI8226 cells at 10 uM; assay type: functional; conditions: read-out: GI
[61] = tested on: HL-60(TB); experiment: Cytotoxicity against human HL-60(TB) cells at 10 uM; assay type: functional; conditions: read-out: GI
[62] = molecular target: Carbonic anhydrase 9 (Homo sapiens, UniProt Q16790)
[63] = read-out: LC50 (the source's name)

Cc1cc(S(=O)(=O)NC(=N)NCc2ccc(S(N)(=O)=O)cc2)c(SCc2ccc(C(F)(F)F)cc2)cc1Cl
GI50 [1]: 2900 nM | TGI [1]: 13.8 µM | CC50 [1, 63]: 66.4 µM | GI50 [2]: 4.9 µM | TGI [2]: 17.7 µM | CC50 [2, 63]: 64.8 µM | GI50 [3]: 4.7 µM | TGI [3]: 20.7 µM | CC50 [3, 63]: 84.4 µM | GI50 [4]: 4.4 µM | TGI [4]: 12.9 µM | CC50 [4, 63]: 46.9 µM | GI50 [5]: 4.6 µM | TGI [5]: 24.1 µM | CC50 [5, 63]: > 100 µM | GI50 [6]: 3.3 µM | TGI [6]: 13.6 µM | CC50 [6, 63]: 67.1 µM | GI50 [7]: 3.1 µM | TGI [7]: 8.9 µM | CC50 [7, 63]: 34.5 µM | GI50 [8]: 3.3 µM | TGI [8]: 12.8 µM | CC50 [8, 63]: 43.2 µM | GI50 [9]: 3.1 µM | TGI [9]: 17.3 µM | CC50 [9, 63]: 46.5 µM | GI50 [10]: 5 µM | TGI [10]: 21 µM | CC50 [10, 63]: 70.2 µM | GI50 [11]: 4.3 µM | TGI [11]: 15.4 µM | CC50 [11, 63]: 41 µM | GI50 ([12]; OVCAR-4): 4.2 µM | TGI ([12]; OVCAR-4): 20.3 µM | CC50 ([12]; OVCAR-4, read-out: LC50 (the source's name)): 75.9 µM | GI50 [13]: 2600 nM | TGI [13]: 9.1 µM | CC50 [13, 63]: 32 µM | GI50 ([14]; UACC-257): 3.7 µM | TGI ([14]; UACC-257): 14.7 µM | CC50 ([14]; UACC-257, read-out: LC50 (the source's name)): 39.4 µM | GI50 [15]: 2500 nM | TGI [15]: 6.2 µM | CC50 [15, 63]: 22.2 µM | GI50 [16]: 3.6 µM | TGI [16]: 14 µM | CC50 [16, 63]: 44.3 µM | GI50 [17]: 3.8 µM | TGI [17]: 12.5 µM | CC50 [17, 63]: 41.9 µM | GI50 [18]: 4.5 µM | TGI [18]: 16.8 µM | CC50 [18, 63]: 49.6 µM | GI50 [19]: 3.8 µM | TGI [19]: 16.3 µM | CC50 [19, 63]: 49.5 µM | GI50 [20]: 6.1 µM | TGI [20]: 20.5 µM | CC50 [20, 63]: 54.3 µM | GI50 [21]: 5 µM | TGI [21]: 19.3 µM | CC50 [21, 63]: 54.4 µM | GI50 [22]: 3000 nM | TGI [22]: 15.9 µM | CC50 [22, 63]: 56.4 µM | GI50 [23]: 4.8 µM | TGI [23]: 18.5 µM | CC50 [23, 63]: 55.8 µM | GI50 [24]: 3.1 µM | TGI [24]: 10.1 µM | CC50 [24, 63]: 41.7 µM | GI50 [25]: 5.2 µM | TGI [25]: 17.9 µM | CC50 [25, 63]: 44.8 µM | GI50 [26]: 4.1 µM | TGI [26]: 15.9 µM | CC50 [26, 63]: 46.6 µM | GI50 [27]: 3.1 µM | TGI [27]: 10.4 µM | CC50 [27, 63]: 41.7 µM | GI50 [28]: 4.6 µM | TGI [28]: 16.8 µM | CC50 [28, 63]: 42.3 µM | GI50 [29]: 3.5 µM | TGI [29]: 11.4 µM | CC50 [29, 63]: 58.1 µM | GI50 [30]: 3.8 µM | TGI [30]: 15.7 µM | CC50 [30, 63]: 63.9 µM | GI50 [31]: 2900 nM | TGI [31]: 8.3 µM | CC50 [31, 63]: 32.4 µM | GI50 [32]: 2800 nM | TGI [32]: 9.1 µM | CC50 [32, 63]: 98.6 µM | GI50 [33]: 2400 nM | TGI [33]: 6.8 µM | CC50 [33, 63]: > 100 µM | GI50 [34]: 3000 nM | TGI [34]: 10.5 µM | CC50 [34, 63]: > 100 µM | GI50 [35]: 3.7 µM | TGI [35]: 25.3 µM | CC50 [35, 63]: > 100 µM | GI50 [36]: 3.5 µM | TGI [36]: 13.4 µM | CC50 [36, 63]: 85.3 µM | GI50 [37]: 2400 nM | TGI [37]: 6.4 µM | CC50 [37, 63]: 54.4 µM | inhibition of growth at 10 µM [38]: 68% | inhibition of growth at 10 µM [39]: 37% | inhibition of growth at 10 µM [40]: 47% | inhibition of growth at 10 µM [41]: 30% | inhibition of growth at 10 µM [42]: 57% | inhibition of growth at 10 µM [43]: 83% | inhibition of growth at 10 µM [44]: 63% | inhibition of growth at 10 µM [45]: 64% | inhibition of growth at 10 µM [46]: 67% | inhibition of growth at 10 µM [47]: 1% | inhibition of growth at 10 µM [48]: 59% | inhibition of growth at 10 µM [49]: 94% | inhibition of growth at 10 µM [50]: 69% | inhibition of growth at 10 µM [51]: 68% | inhibition of growth at 10 µM [52]: 68% | inhibition of growth at 10 µM [53]: 89% | inhibition of growth at 10 µM [54]: 79% | inhibition of growth at 10 µM [55]: 89% | inhibition of growth at 10 µM [56]: 53% | inhibition of growth at 10 µM [57]: 60% | inhibition of growth at 10 µM [58]: 17% | inhibition of growth at 10 µM [59]: 48% | inhibition of growth at 10 µM [60]: 58% | inhibition of growth at 10 µM [61]: 83%

Cc1cc(S(=O)(=O)NC(=N)Nc2ccccc2S(N)(=O)=O)c(SCc2cccc3ccccc23)cc1Cl
Ki [62]: 138 nM
